These results are taken from article PMC8678048 (Frontiers in Microbiology, 2021).

Data set [1] has as its system human plasma (coagulation system). The class given is biochemical. To be noted: pH 7.4.
The next data set relates to ASFV SY18 strain. The data set is classed as cell-based, African swine fever virus.
Another data set relates to thrombin. The data set is classed as biochemical. The conditions noted are these: 10μM.

The structures appear in SMILES notation. Like-named read-outs stand apart in the source and are kept apart here. Positions of bridges follow the written chain, without caps; N, C: chain ends. Residues, ends and D or L forms follow the SMILES beside them.

For the compound `CC[C@H](C)[C@@H]1NC(=O)CNC(=O)[C@H](CO)NC(=O)[C@@H]2CSSC[C@@H](C(=O)N[C@@H](Cc3ccc(O)cc3)C(=O)O)NC(=O)[C@H](CCCCN)NC(=O)[C@@H]3CSSC[C@H](NC(=O)[C@H](CCC(N)=O)NC(=O)[C@H](Cc4ccc(O)cc4)NC(=O)[C@H](CCC(N)=O)NC(=O)[C@H](CC(N)=O)NC(=O)[C@H](Cc4ccccc4)NC(=O)[C@@H]4CCCN4C(=O)[C@@H](NC(=O)CNC(=O)[C@H](Cc4ccc(O)cc4)NC(=O)CN)CSSC[C@H](NC(=O)[C@H](Cc4ccc(O)cc4)NC(=O)CNC(=O)CNC(=O)[C@H](CCCCN)NC(=O)[C@H](Cc4ccc(O)cc4)NC(=O)CNC(=O)[C@H](CCCNC(=N)N)NC1=O)C(=O)N[C@@H](CCCCN)C(=O)NCC(=O)N[C@@H]([C@@H](C)O)C(=O)N[C@@H](Cc1ccccc1)C(=O)N[C@@H](CCCCN)C(=O)N[C@@H](CCC(N)=O)C(=O)N[C@@H]([C@@H](C)O)C(=O)N3)C(=O)N[C@@H](Cc1c[nH]cn1)C(=O)N[C@@H](CO)C(=O)N[C@@H](Cc1c[nH]cn1)C(=O)N2` [OPTX-1] (H-GYGCPFNQYQCHSHCSGIRGYKGGYCKGTFKQTCKCY-OH; disulfide 4-26, 11-34, 15-36 (inferred); N-terminus and C-terminus assumed), the “cytotoxicity on Vero cells” value with Vero cells is on record as “less cytotoxicity on Vero cells than other defensins”. Further, the “overall cytotoxicity (Vero and PAM cells)” value in the data set on Vero cells is given as “relative low cytotoxicities”. In data set [1], the “anticoagulant effect (plasma recalcification time)” value is given as “show anticoagulant effects in plasma-based coagulation assays”. For the same compound, the “inhibition of ASFV infection/replication” value in the data set on ASFV SY18 strain (5μM) and in the data set with ASFV SY18 strain (10μM) was “inhibited ASFV infection in PAM cells” in each case. In the data set with PAM cells, the “cytotoxicity on PAM cells” value is recorded as “more significant than on Vero cells”. Moreover, in the data set on thrombin, the thrombin inhibitory effect entry is listed as “the activity of thrombin was inhibited”.
